Experimental data from article PMC2279149, “Mouse N-acetyltransferase type 2, the homologue of human N-acetyltransferase type 1” (Biochemical Pharmacology, 2008).
Like-named read-outs stand apart in the source and are kept apart here.

How the values were obtained:
mouse Nat2 [1] = target: T1, mouse Nat2 (Mus musculus, UniProt P50295); assay: Substrate specific activity of mouse Nat2 (rate of CoA production, DTNB); type: biochemical; details: substrate 500 μM, AcCoA 400 μM, 25 °C, pH 8.0
T1 construct: The mouse Nat2 open-reading frame [22] was sub-cloned into pET28b(+); hexa-histidine tag (His-tag, from pET28b(+)) (N, cleaved yes); made in house; host or cells: Escherichia coli Rosetta(DE3)pLysS
T1 sequence (P50295 1-290): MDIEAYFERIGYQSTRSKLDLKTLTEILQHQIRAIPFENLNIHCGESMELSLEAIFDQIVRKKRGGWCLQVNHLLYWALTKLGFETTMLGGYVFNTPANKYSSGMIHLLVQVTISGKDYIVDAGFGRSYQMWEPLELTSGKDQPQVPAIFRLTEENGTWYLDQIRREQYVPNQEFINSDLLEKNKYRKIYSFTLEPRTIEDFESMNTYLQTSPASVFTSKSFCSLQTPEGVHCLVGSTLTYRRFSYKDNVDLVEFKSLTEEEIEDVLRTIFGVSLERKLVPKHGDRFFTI
Protocol: The rate of production of the free thiol Coenzyme A by NAT, in the presence of a range of known NAT acetyl-acceptor substrates, was determined by using Ellman's reagent, 5,5′-dithio-bis(2-nitrobenzoic acid) (DTNB) as previously described [[2,26]]. The substrate (500 μM) and purified recombinant NAT were pre-incubated (25 °C, 5 min) in 96-well flat-bottomed polystyrene plates (Costar®, Corning Inc.) in 20 mM Tris–HCl (pH 8.0). AcCoA (400 μM) was added to start the reaction in a final volume of 100 μL. The reaction was quenched with the addition of 25 μL of guanidine–HCl solution (6.4 M guanidine–HCl, 0.1 M Tris–HCl (pH 7.3)) containing 5 mM DTNB. The absorbance at 405 nm was measured on a plate-reader (Sunrise, Tecan). Assay buffer was used to replace substrate, AcCoA or NAT for control reactions. The amount of CoA produced in the assay was determined in comparison with a CoA standard curve.
Substrate abbreviations used for the substrate selectivity assays are as follows: aniline (ANL), 4-aminobenzoic acid (PABA), 4-aminosalicylic acid (4AS), 5-aminosalicylic acid (5AS), 4-chloroaniline (CLA), 4-bromoaniline (BRA), 4-iodoaniline (IOA), 4-methoxyanline (ANS), 4-ethoxyaniline (EOA), 4-butoxyanline (BOA), 4-hexyloxyaniline (HOA), 4-phenoxyaniline (POA), 4-aminoveratrole (4AV), 2-aminofluorene (2AF), 4-aminobenzoyl-L-glutamate (pABGlu), sulfamethazine (SMZ), procainamide (PRO), 4-aminopyridine (APY), isoniazid (INH), hydralazine (HDZ) and phenylhydrazine (PHZ). The stock concentration of substrate was 100 mM dissolved in DMSO, such that the final concentration of DMSO was less than 5% in the assays. DMSO only controls were carried out.
Fig. 2 Comparison of the substrate specific activity profiles of mouse Nat2, human NAT1 and human NAT2. The substrate specific activity profiles for mouse Nat2 (grey bars), human NAT1 (cross-hatched bars) and human NAT2 (black bars) are shown. The activity of mouse Nat2 was determined by measuring the rate of CoA production, as described in Section 2. Purified mouse Nat2 (0.125 μg) was incubated with arylamine substrate (each at 500 μM) and AcCoA (400 μM) in assay buffer (20 mM Tris–HCl (pH 8.0)) containing 0.5% (v/v) DMSO at 25 °C. The specific activities were determined from the linear initial rates of reaction. All measurements were performed in triplicate and are expressed as mean ± standard deviation relative to the most rapidly acetylated substrate. The human NAT1 and NAT2 data are taken from. The abbreviations are defined in Section 2.
The rate of hydrolysis of AcCoA was measured in the presence of a wide range of acetyl-acceptors (known NAT substrates, at 500 μM) and mouse Nat2 as described in the Methods section and Supplementary Fig. 1. The assays were performed in the presence of 5% (v/v) DMSO.

mouse Nat2 [2] = target: T1, mouse Nat2; assay: Inhibition of mouse Nat2 acetylation of PABA (colorimetric DMAB assay); type: biochemical
Protocol: The rates of arylamine acetylation by NATs were determined colorimetrically as previously described, but with minor modifications. Each assay contained the enzyme, arylamine substrate (see each figure legends for concentrations) and AcCoA (400 μM) in a total volume of 100 μL in assay buffer (20 mM Tris–HCl (pH 8.0), 1 mM DTT). Initially, the enzyme and substrate mixtures were pre-incubated at 25 °C for 5 min and AcCoA was added to start the reaction. The reaction was quenched using 20% (w/v) trichloroacetic acid (TCA) at different time intervals. The stopped reaction was centrifuged (16,000 × […], 10 min) to pellet the precipitated proteins. The stopped reaction mixture (200 μL) was added to 800 μL of 5% (w/v) 4-(N,N-dimethylamino)benzaldehyde (DMAB) in 9:1 acetonitrile:water to develop the colour. The absorption at 450 nm was measured with a Hitachi U-2001 UV–vis spectrophotometer, with the amount of residual substrate in the reaction was determined by comparison with a standard curve.
The inhibitory effect of steroids on the rate of acetylation of arylamines by mouse Nat2 was measured by using the colorimetric DMAB assay as described in Section 2. Test compounds (50 μM, 2% DMSO unless specified) were pre-incubated with recombinant mouse Nat2 (3 ng) and PABA (75 μM) for 10 min at room temperature. AcCoA (400 μM) was added to start the reaction and the reaction mixture was incubated at 37 °C. The total reaction volume was 100 μL. Reactions were stopped at various time intervals by the addition of 100 μL of 20% (w/v) TCA. The colour was developed and measured as described in Section 2. The linear initial rate of reaction was determined and the percentage inhibition was calculated relative to the control activity measured without the inhibitor. All measurements were performed in triplicate and are expressed as mean ± standard deviation. *2% (v/v) ethanol **5% (v/v) DMSO used to dissolve the compounds in the assay.

mouse Nat2 [3] = target: T1, mouse Nat2; assay: 1D 1H NMR titration of mouse Nat2 with ligand; type: binding; details: 8 equivalents of bisphenol A; 20 °C, pH 7.0
Protocol: 1D ^1H NMR spectra for hamster and mouse Nat2 were collected at 20 °C using a jump-return sequence. This sequence enabled the observation of H^N peaks which exchange to a significant extent with H2O. Spectra were collected using a 600 MHz spectrometer using a sweep width of 12,500 Hz. Unlabelled hamster and mouse Nat2 were used at a concentration of 10 mg/mL in the buffer described above. The titration of mouse Nat2 with bisphenol A was carried out by stepwise addition of small volumes (5–20 μL) of a concentrated solution of bisphenol A (100 mM in deuterated DMSO) to the mouse Nat2 solution in the NMR tube. The highest concentration of DMSO in the sample used was 2.8%. DMSO alone had no effect on the NMR spectrum of mouse Nat2 using concentrations up to 5%.

[4] = design: method as in PMID 11502892; details: after a soy-based meal; cited from earlier work
[5] = cited from earlier work
[6] = steroidogenic compounds, inhibitor 1–500 μM, recombinant mouse Nat2 3 ng, PABA 75 μM, AcCoA 400 μM, 37 °C, read-out: IC50
[7] = xenobiotic oestrogens, recombinant mouse Nat2 3 ng, PABA 75 μM, AcCoA 400 μM, 37 °C, read-out: IC50 mNAT2

In the case of Nc1ccc2c(c1)Cc1ccccc1-2 [2AF, 2-aminofluorene], the “Specific activity of mouse Nat2 with substrate” value (from here on “Specific activity of mouse Nat2”) (mouse Nat2 [1]) is reported as “high specific activities” and the “Specific activity of mouse Nat2” value (mouse Nat2 [1]; listed as 2-aminofluorene) is reported as “readily acetylates”.
For Nc1ccc(C(=O)O)c(O)c1 [4AS, 4-aminosalicylic acid], the “Specific activity of mouse Nat2” value (mouse Nat2 [1]) was “high specific activities”.
For Nc1ccc(O)c(C(=O)O)c1 [5AS, 5-aminosalicylic acid], the “Specific activity of mouse Nat2” value (mouse Nat2 [1]) was “high specific activities”.
For CC(=O)[C@@]1(O)CC[C@H]2[C@@H]3CCC4=CC(=O)CC[C@]4(C)[C@H]3CC[C@@]21C [17-Hydroxy-progesterone], the IC50 (mouse Nat2 [2]; [6]) was over 500 µM.
Work on C[C@]12CC[C@@H]3c4ccc(O)cc4CC[C@H]3[C@@H]1CC[C@@H]2O [17-Hydroxy-β-estradiol] yielded an IC50 (mouse Nat2 [2]; [6]) of 55 ± 5 µM.
For C[C@H]1CCC[C@H](O)CCC/C=C/c2cc(O)cc(O)c2C(=O)O1 [Alpha-Zearalenol], the IC50 (mouse Nat2 [2]; [7]) was 70 ± 10 µM.
Work on C[C@]12CCC(=O)C=C1CC[C@@H]1[C@@H]2CC[C@]2(C)C(=O)CC[C@@H]12 [Androsteinedione] yielded an IC50 (mouse Nat2 [2]; [6]) of over 500 µM.
For C[C@H]1CCC[C@@H](O)CCC/C=C/c2cc(O)cc(O)c2C(=O)O1 [Beta-Zearalenol], the IC50 (mouse Nat2 [2]; [7]) was 450 ± 10 µM.
With CC(C)(c1ccc(O)cc1)c1ccc(O)cc1 [Bisphenol A] the “Change in chemical shift of histidine peak 1 (downfield)” value (mouse Nat2 [3]) was about 0.12 ppm, the “Change in chemical shift of histidine peak 4 (upfield)” value (mouse Nat2 [3]) was about 0.08 ppm and the IC50 (mouse Nat2 [2]; [7]) was 290 ± 10 µM.
With C[C@]12CC[C@@H]3c4ccc(O)cc4CC[C@H]3[C@@H]1CCC2=O [Estrone] the IC50 (mouse Nat2 [2]; [6]) was 370 ± 10 µM.
In the case of O=c1c(-c2ccc(O)cc2)coc2cc(O)cc(O)c12 [Geni stein, genistein], the Circulating plasma concentration [4] is listed as at most 18 µM and the IC50 (mouse Nat2 [2]) is listed as 45 ± 5 µM.
In the case of NNc1nncc2ccccc12 [HDZ, hydralazine], the “Specific activity of mouse Nat2” value (mouse Nat2 [1]) is reported as “low specific activities”.
For NNC(=O)c1ccncc1 [INH, isoniazid], the “Specific activity of mouse Nat2” value (mouse Nat2 [1]) was “low specific activities”.
With Nc1ccc(C(=O)O)cc1 [PABA, 4-aminobenzoic acid] the “Specific activity of mouse Nat2” value (mouse Nat2 [1]) was “high specific activities”.
With NNc1ccccc1 [PHZ, phenylhydrazine] the “Specific activity of mouse Nat2” value (mouse Nat2 [1]) was “low specific activities”.
Compound CC(=O)[C@H]1CC[C@H]2[C@@H]3CC=C4C[C@@H](O)CC[C@]4(C)[C@H]3CC[C@]12C [Pregnelone] has an IC50 (mouse Nat2 [2]; [6]) of over 100 µM.
In the case of CC/C(=C(\c1ccccc1)c1ccc(OCCN(C)C)cc1)c1ccccc1 [Tamoxifen], the Intratumoral level [5] is given as “micromolar concentrations”.
C[C@]12CC[C@H]3[C@@H](CCC4=CC(=O)CC[C@@]43C)[C@@H]1CC[C@@H]2O [Testosterone] gave an IC50 (mouse Nat2 [2]; [6]) of over 500 µM.
C[C@H]1CCCC(=O)CCC/C=C/c2cc(O)cc(O)c2C(=O)O1 [Zearalenone] gave an IC50 (mouse Nat2 [2]) of 220 ± 10 µM.
With CCN(CC)CCNC(=O)c1ccc(N)cc1 [procainamide] the “Specific activity of mouse Nat2” value (mouse Nat2 [1]) was “low specific activities”.
In the case of Cc1cc(C)nc(NS(=O)(=O)c2ccc(N)cc2)n1 [sulfamethazine], the “Specific activity of mouse Nat2” value (mouse Nat2 [1]) is reported as “low specific activities”.
